Results as given in patent US8063229B2, “Antifungal triazole derivatives, method for the preparation thereof and pharmaceutical composition containing same” (Daewoong Pharmaceutical Co., Ltd., priority 2006, dated 2011).
In brackets after ≈: the same amount, converted by molar mass.

Assays:
Candida albicans [1] = test: In vitro assay for antifungal activity (MIC80); type: cell-based; conditions: concentration at which 80% inhibition of fungus growth occurs, RPMI 1640, alamarBlue, 24 hours, duplicate; for MIC80: Candida albicans
Description: (§1) Each fungal strain to be tested was inoculated onto Sabouraud dextrose agar, YM agar, and potato dextrose agar and cultured at 35° C. for two to three days. Single colonies of such of the yeast fungi were collected from the culture and suspended in 5 ml of 0.85% sterile saline, in an appropriate amount so that the absorbance at 530 nm became 0.108. The suspensions was diluted serially by 1:50 (RPMI 1640 media:sterile saline) and then further diluted by 1:20 (RPMI 1640 media:sterile saline) to prepare liquid inocula having a cell count ranging from 1.0×10^3 to 5.0×10^3 CFU/ml.
(§2) Antifungal samples were prepared by serially diluting each of the compounds of the present invention in RPMI 1640 media to concentrations range from 0.0156 to 32 μg/ml. As an excipient, DMSO was added to the antifungal sample to a final concentration of 1% (VAT). 0.1 ml of each of the serially diluted test solution was added to each well of 96 well plate, followed by adding 0.1 ml of each of the fungal inocula thereto.
(§3) At a given concentration of the test compound, the fungus growth was observed, after 24 hours, with the naked eye for all yeast species except for Cryptococcus neoformans, and the filamentous fungus growth was observed, after 48 hours. Also, using the growth indicator alamarBlue, MIC80, the concentration of the test compound at which 80% inhibition of the fungus growth occurs was determined based on the value observed for the negative control.

Cryptococcus neoformans = test: In vitro assay for antifungal activity (MIC80); type: cell-based; conditions: concentration at which 80% inhibition of fungus growth occurs, RPMI 1640, alamarBlue, duplicate; for MIC80: Cryptococcus neoformans
Description: as §1, §2, §3

Candida glabrata = test: In vitro assay for antifungal activity (MIC80); type: cell-based; conditions: concentration at which 80% inhibition of fungus growth occurs, RPMI 1640, alamarBlue, 24 hours, duplicate; for MIC80: Nakaseomyces glabratus
Description: as §1, §2, §3

Candida parapsilosis = test: In vitro assay for antifungal activity (MIC80); type: cell-based; conditions: concentration at which 80% inhibition of fungus growth occurs, RPMI 1640, alamarBlue, 24 hours, duplicate; for MIC80: Lodderomyces parapsilosis
Description: as §1, §2, §3

Candida tropicallis = test: In vitro assay for antifungal activity (MIC80); type: cell-based; conditions: concentration at which 80% inhibition of fungus growth occurs, RPMI 1640, alamarBlue, 24 hours, duplicate; for MIC80: Candida
Description: as §1, §2, §3

Candida krusei = test: In vitro assay for antifungal activity (MIC80); type: cell-based; conditions: concentration at which 80% inhibition of fungus growth occurs, RPMI 1640, alamarBlue, 24 hours, duplicate; for MIC80: Pichia kudriavzevii
Description: as §1, §2, §3

Candida albicans [2] = test: In vivo assay for antifungal activity (survival of infected mice); conditions: male mice, Candida albicans i.v.; 10 mg/kg orally once a day for seven days from 2 hours after infection; survival 28 days after infection
Description: 0.1 mL of a suspension containing 5×10^7 CFU/ml of Candida albicans was administered to each of 10 male mice by intravenous injection. 10 mg/kg of each of the test compounds to orally administer to the inoculated mouse 2 hours after the fungal infection. The test compound was administered once a day for seven days. The number of mice which survived the fungal infection for 28 days after the fungal infection was determined as % survival for each test group, and the results are given in Table 7: […]

[3] = Assay for subacute toxicity in mice; type: in vivo
Description: Subacute cytotoxicity tests were conducted by administering Example compounds 41 and 45, each suspended in aqueous 0.5% methylcellulose to mice once a day for 2 weeks.

[4] = mice, suspended in aqueous 0.5% methylcellulose, once a day for 2 weeks

| Compound | MIC80 (Candida albicans [1]) | MIC80 (Cryptococcus neoformans) | MIC80 (Candida glabrata) | MIC80 (Candida parapsilosis) | MIC80 (Candida tropicallis) | MIC80 (Candida krusei) | % Survival (Candida albicans [2]) | changes in the living states, organs, liver enzyme and liver weight [3, 4] | toxic syndromes [3, 4] | MIC80 Candida albicans (Candida albicans [1]) | MIC80 Cryptococcus neoformans (Cryptococcus neoformans) | MIC80 Candida glabrata (Candida glabrata) | MIC80 Candida parapsilosis (Candida parapsilosis) | MIC80 Candida tropicallis (Candida tropicallis) | MIC80 Candida krusei (Candida krusei) | toxic syndromes ([3]; mouse, in vivo) |
| --- | --- | --- | --- | --- | --- | --- | --- | --- | --- | --- | --- | --- | --- | --- | --- | --- |
| C[C@@H](n1cc(CCc2ccc(F)cc2)cn1)[C@](O)(Cn1cncn1)c1ccc(F)cc1F [Example 38, (2R,3R)-2-(2,4-Difluorophenyl)-3-(4-(4-fluorophenethyl)-1H-pyrazol-1-yl)-1-(1H-1,2,4-triazol-1-yl)butan-2-ol] | ≤ 0.015 µg/mL | 0.125 µg/mL (≈ 0.283 µM) | 2 µg/mL (≈ 4.53 µM) | ≤ 0.015 µg/mL | ≤ 0.015 µg/mL | 0.25 µg/mL (≈ 0.566 µM) |  |  |  |  |  |  |  |  |  |  |
| C[C@@H](n1cc(-n2ccn(-c3ccc(Cl)cc3)c2=O)cn1)[C@](O)(Cn1cncn1)c1ccc(F)cc1F [Example 23, 3-(4-Chlorophenyl)-1-(1-((2R,3R)-3-(2,4-difluorophenyl)-3-hydroxy-4-(1H-1,2,4-triazol-1-yl)butan-2-yl)-1H-pyrazol-4-yl)-1H-imidazole-2(3H)-one] | ≤ 0.015 µg/mL | 0.125 µg/mL (≈ 0.244 µM) | 4 µg/mL (≈ 7.81 µM) | ≤ 0.015 µg/mL | 0.125 µg/mL (≈ 0.244 µM) | 0.5 µg/mL (≈ 0.977 µM) |  |  |  |  |  |  |  |  |  |  |
| OC(Cn1cncn1)(Cn1cncn1)c1ccc(F)cc1F [Fluconazole, fluconazole, reference compound] | 4 µg/mL (≈ 13.1 µM) | 32 µg/mL (≈ 104 µM) | > 32 µg/mL | > 32 µg/mL | > 32 µg/mL | 4 µg/mL (≈ 13.1 µM) | 50% |  |  |  |  |  |  |  |  |  |
| C[C@@H](n1cc(/C=C/c2ccc(Cl)cc2)cn1)[C@](O)(Cn1cncn1)c1ccc(F)cc1F [Example 41, (2R,3R,E)-3-(4-(4-Chlorostyryl)-1H-pyrazol-1-yl)-2-(2,4-difluorophenyl)-1-(1H-1,2,4-triazol-1-yl)butan-2-ol] | ≤ 0.015 µg/mL | ≤ 0.015 µg/mL | 1 µg/mL (≈ 2.19 µM) | ≤ 0.015 µg/mL | 0.125 µg/mL (≈ 0.274 µM) | 0.5 µg/mL (≈ 1.1 µM) | 100% | no changes | none of the mice were observed to suffer from toxic syndromes |  |  |  |  |  |  |  |
| C[C@@H](n1cc(/C=C/c2ccc(F)cc2)cn1)[C@](O)(Cn1cncn1)c1ccc(F)cc1F [Example 40, (2R,3R,E)-2-(2,4-Difluorophenyl)-3-(4-(4-fluorostyryl)-1H-pyrazol-1-yl)-1-(1H-1,2,4-triazol-1-yl)butan-2-ol] | ≤ 0.015 µg/mL | 0.031 µg/mL (≈ 0.0705 µM) | 2 µg/mL (≈ 4.55 µM) | ≤ 0.015 µg/mL | ≤ 0.015 µg/mL | 0.25 µg/mL (≈ 0.569 µM) |  |  |  |  |  |  |  |  |  |  |
| C[C@@H](n1cc(CCc2ccc(Cl)cc2)cn1)[C@](O)(Cn1cncn1)c1ccc(F)cc1F [Example 39, (2R,3R)-3-(4-(4-Chlorophenethyl)-1H-pyrazol-1-yl)-2-(2,4-difluorophenyl)-1-(1H-1,2,4-triazol-1-yl)butan-2-ol] | ≤ 0.015 µg/mL | ≤ 0.015 µg/mL | 1 µg/mL (≈ 2.18 µM) | ≤ 0.015 µg/mL | 0.062 µg/mL (≈ 0.135 µM) | 0.5 µg/mL (≈ 1.09 µM) |  |  |  |  |  |  |  |  |  |  |
| C[C@@H](n1cc(/C=C/c2cnccn2)cn1)[C@](O)(Cn1cncn1)c1ccc(F)cc1F [Example 53, (2R,3R,E)-2-(2,4-Difluorophenyl)-3-(4-(2-(pyrazin-2-yl)vinyl)-1H-pyrazol-1-yl)-1-(1H-1,2,4-triazol-1-yl)butan-2-ol] | 0.125 µg/mL (≈ 0.295 µM) | 1 µg/mL (≈ 2.36 µM) |  | 0.125 µg/mL (≈ 0.295 µM) |  | 4 µg/mL (≈ 9.45 µM) |  |  |  |  |  |  |  |  |  |  |
| C[C@@H](n1cc(C#Cc2ccc(F)cc2)cn1)[C@](O)(Cn1cncn1)c1ccc(F)cc1F [Example 45] |  |  |  |  |  |  | 100% |  |  | ≦0.015 μg/ml | 0.062 µg/mL (≈ 0.142 µM) | 2 µg/mL (≈ 4.57 µM) | ≦0.015 μg/ml | ≦0.015 μg/ml | 0.5 µg/mL (≈ 1.14 µM) | none of the mice were observed to suffer from toxic syndromes |
| C[C@@H](n1cc(N2CCN(c3ccc(Cl)cc3)C2=O)cn1)[C@](O)(Cn1cncn1)c1ccc(F)cc1F [Example 1, 1-(4-Chlorophenyl)-3-(1-((2R,3R)-3-(2,4-difluorophenyl)-3-hydroxy-4-(1H-1,2,4-triazol-1-yl)butan-2-yl)-1H-pyrazol-4-yl)imidazolidin-2-one] | ≤ 0.015 µg/mL | 0.25 µg/mL (≈ 0.486 µM) | 8 µg/mL (≈ 15.6 µM) | 0.125 µg/mL (≈ 0.243 µM) | 1 µg/mL (≈ 1.95 µM) | 2 µg/mL (≈ 3.89 µM) |  |  |  |  |  |  |  |  |  |  |
